“And” between values parts separate entries of the source, which are not always exact repeats. Identical values can stand only once. One block for each compound: values may come before it.
Experiments:
monoglyceride lipase [1] = assay: Substrate specificity of the monoglyceride lipase (enzymatic activity assay, glycerol formed); format: biochemical, Bacillus stearothermophilus H-165; details: for Glycerol hydrolyzed from substrate in the presence of the monoglyceride lipase: diglyceride or triglyceride used as substrate; for Activity of lipase (%): relative activity of monoglyceride lipase on the substrate, Monolaurin 100.0
Description: (8) Substrate specificity: The substrate specificity of the monoglyceride lipase in this invention is investigated under conditions where the below-described assay method of enzymatic activity for the monoglyceride lipase is conducted.
MEASUREMENT METHOD OF ENZYMATIC ACTIVITY OF MONOGLYCERIDE LIPASE
(§1) To 0.4 ml of a solution of the above composition, is added 50 μl of 10 mM monolaurin (0.5 % aqueous solution of "Triton X-100"). The resultant mixture is pre-incubated at 37° C. for 2-3 minutes and 50 μl of an enzyme solution is added to initiate a reaction. Exactly 10 minutes later, 2.5 ml of 5 % SDS (sodium dodecyl sulfate) is added to terminate the reaction. The absorbance is measured at 550 nm. Regarding the enzymatic activity, the activity capable of producing 1 μmole of glycerol per minute is defined at 1 Unit (1 U). The following equation is used for calculation of enzymatic activity (potency): [formula] wherein ΔA 550: Absorbance at the wavelength of 550 nm

monoglyceride lipase [2] = assay: Effects of surface active agents and metal ions on the monoglyceride lipase; format: biochemical, Bacillus stearothermophilus H-165; details: for Effect of added reagent on monoglyceride lipase activity: Table 2; for Activity of lipase (%): no reagent 100
Description: The mon[…] is not affected by the addition of divalent metal ions such as Ca^++ and Mg^++.
MEASUREMENT METHOD OF ENZYMATIC ACTIVITY OF MON[…]
as §1

[3] = system: Pancreatic lipase and the monoglyceride lipase; assay: Glycerol liberated from α,β-diglyceride substrates by pancreatic lipase plus monoglyceride lipase; format: biochemical; details: pancreatic lipase and monoglyceride lipase applied
Text: (2) Substrate specificity of the monoglyceride lipase upon use of α,β-diglyceride as a substrate:
(§2) (i) Pancreatic lipase and the monoglyceride lipase are applied to the below-described α,β-diglyceride substrates. Their α-positions are hydrolyzed by the pancreatic lipase and then the resulting β-monoglycerides are allowed to react with the monoglyceride lipase, in order to analyze glycerol thus liberated. Glycerol is detected with respect to the substrates, namely,α-oleyl-β-palmitoyldiglyceride, α-palmitoly-β-oleolyldiglyceride and α,β-dilinoleylglyceride. However, glycerol is not detected when only pancreatic lipase is used.

pancreatic lipase = molecular target: T1, pancreatic lipase (Sus scrofa, UniProt P00591); assay: Glycerol liberated from α,β-diglyceride substrates by pancreatic lipase only; format: biochemical; details: only pancreatic lipase used
T1 sequence (P00591 1-450): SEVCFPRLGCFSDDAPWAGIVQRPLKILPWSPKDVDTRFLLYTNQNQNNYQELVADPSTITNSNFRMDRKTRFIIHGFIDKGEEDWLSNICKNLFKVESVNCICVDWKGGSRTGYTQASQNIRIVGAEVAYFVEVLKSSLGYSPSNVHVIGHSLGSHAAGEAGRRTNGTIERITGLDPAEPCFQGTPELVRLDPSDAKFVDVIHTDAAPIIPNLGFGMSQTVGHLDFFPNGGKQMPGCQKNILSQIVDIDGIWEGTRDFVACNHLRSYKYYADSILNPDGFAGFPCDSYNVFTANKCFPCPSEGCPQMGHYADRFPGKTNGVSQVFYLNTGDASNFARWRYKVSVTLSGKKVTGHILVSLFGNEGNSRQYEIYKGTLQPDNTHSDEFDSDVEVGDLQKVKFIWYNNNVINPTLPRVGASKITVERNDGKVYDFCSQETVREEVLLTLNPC
Text: as §2

[4] = reagent concentration 1 mM, 10 min

Structure (SMILES): CCCCC/C=C\C/C=C\CCCCCCCC(=O)OCC(CO)OC(=O)CCCCCCC/C=C\C/C=C\CCCCC (stereo not drawn) [1,2-dilinolein]
- Glycerol hydrolyzed from substrate in the presence of the monoglyceride lipase (monoglyceride lipase [1]): no glycerol hydrolyzed is detected
- Activity of lipase (%) (monoglyceride lipase [1]): 0%

Structure (SMILES): [Ca+2].[Cl-].[Cl-] [CaCl2, calcium chloride]
- Effect of added reagent on monoglyceride lipase activity (monoglyceride lipase [2]): not affected
- Activity of lipase (%) (monoglyceride lipase [2]; [4]): 100.0%

Structure (SMILES): C[C@H](CCC(=O)O)[C@H]1CC[C@H]2[C@@H]3[C@H](O)C[C@@H]4C[C@H](O)CC[C@]4(C)[C@H]3C[C@H](O)[C@]12C [Cholic acid]
- Effect of added reagent on monoglyceride lipase activity (monoglyceride lipase [2]): inhibition of the activity is observed in the high concentration range
- Activity of lipase (%) (monoglyceride lipase [2]; [4]): 100.0%
- Activity of lipase (%) (monoglyceride lipase [2]; reagent concentration 10 mM): 92.6%

Structure (SMILES): O=C(O)CN(CCN(CC(=O)O)CC(=O)O)CC(=O)O [EDTA]
- Activity of lipase (%) (monoglyceride lipase [2]; [4]): 86.0%

Structure (SMILES): [Cl-].[Cl-].[Mg+2] [MgCl2, magnesium chloride]
- Effect of added reagent on monoglyceride lipase activity (monoglyceride lipase [2]): not affected
- Activity of lipase (%) (monoglyceride lipase [2]; [4]): 100.0%

Structure (SMILES): CCCCCCCCCC(=O)OCC(O)CO (stereo not drawn) [Monocaprin]
- Activity of lipase (%) (monoglyceride lipase [1]): 89.1%

Structure (SMILES): CCCCCCCCCCCC(=O)OCC(O)CO (stereo not drawn) [Monolaurin]
- Activity of lipase (%) (monoglyceride lipase [1]): 100.0%

Structure (SMILES): CCCCCCCC/C=C\CCCCCCCC(=O)OCC(O)CO (stereo not drawn) [Monoolein]
- Activity of lipase (%) (monoglyceride lipase [1]): 56.3% and 75.6%

Structure (SMILES): CCCCCCCCCCCCCCCCCC(=O)OCC(O)CO (stereo not drawn) [Monostearin]
- Activity of lipase (%) (monoglyceride lipase [1]): 27.6%

Structure (SMILES): CCCCCCCC/C=C\CCCCCCCC(=O)OCC(COC(=O)CCCCCCC/C=C\CCCCCCCC)OC(=O)CCCCCCC/C=C\CCCCCCCC [Triolein]
- Glycerol hydrolyzed from substrate in the presence of the monoglyceride lipase (monoglyceride lipase [1]): no glycerol hydrolyzed is detected
- Activity of lipase (%) (monoglyceride lipase [1]): 0%

Structure (SMILES): CCCCC/C=C\C/C=C\CCCCCCCC(=O)OCC(CO)OC(=O)CCCCCCC/C=C\C/C=C\CCCCC (stereo not drawn) [α,β-dilinoleylglyceride]
- Glycerol liberated [3]: detected
- Glycerol liberated (pancreatic lipase): not detected

Structure (SMILES): CCCCCCCC/C=C\CCCCCCCC(=O)OCC(CO)OC(=O)CCCCCCCCCCCCCCC (stereo not drawn) [α-oleyl-β-palmitoyldiglyceride]
- Glycerol liberated [3]: detected
- Glycerol liberated (pancreatic lipase): not detected

Structure (SMILES): CCCCCCCC/C=C\CCCCCCCC(=O)OC(CO)COC(=O)CCCCCCCCCCCCCCC (stereo not drawn) [α-palmitoly-β-oleolyldiglyceride]
- Glycerol liberated [3]: detected
- Glycerol liberated (pancreatic lipase): not detected

The remaining lines, values ahead:

- Glycerol hydrolyzed from substrate in the presence of the monoglyceride lipase (monoglyceride lipase [1]): no glycerol hydrolyzed is detected
- Activity of lipase (%) (monoglyceride lipase [1]): 0%
Structure (SMILES): CCCCC/C=C\C/C=C\CCCCCCCC(=O)OCC(O)COC(=O)CCCCCCC/C=C\C/C=C\CCCCC [1,3-dilinolein]

- Activity of lipase (%) (monoglyceride lipase [1]): 10.1%
Structure (SMILES): CC(=O)OCC(O)CO (stereo not drawn) [Monoacetin]

- Activity of lipase (%) (monoglyceride lipase [1]): 47.1%
Structure (SMILES): CCCC(=O)OCC(O)CO (stereo not drawn) [Monobutyrin]

- Activity of lipase (%) (monoglyceride lipase [1]): 85.7%
Structure (SMILES): CCCCCCCCCCCCCC(=O)OCC(O)CO (stereo not drawn) [Monomyristin]

- Activity of lipase (%) (monoglyceride lipase [1]): 39.5%
Structure (SMILES): CCCCCCCCCCCCCCCC(=O)OCC(O)CO (stereo not drawn) [Monopalmitin]

- Activity of lipase (%) (monoglyceride lipase [1]): 0%
Structure (SMILES): CC(=O)OCC(COC(C)=O)OC(C)=O [Triacetin]

- Activity of lipase (%) (monoglyceride lipase [1]): 0%
Structure (SMILES): CCCC(=O)OCC(COC(=O)CCC)OC(=O)CCC [Tributyrin]

— US5126246A, “Reagent for analysis of triglycerides and analysis using the same” (priority 1988, dated 1992)
